Measurements from ChEMBL document CHEMBL2375331, “Daphnane-type diterpenes with inhibitory activities against human cancer cell lines from Daphne genkwa” (Bioorg Med Chem Lett, 2013).

Tests used:
Assay type in all cases: functional, cell-based
HepG2 = experiment: Cytotoxicity against human HepG2 cells after 48 hrs by MTT assay; details: HepG2, 48 h
HT-1080 = experiment: Cytotoxicity against human HT1080 cells after 48 hrs by MTT assay; details: HT-1080, 48 h
K562 = experiment: Cytotoxicity against human K562 cells after 48 hrs by MTT assay; details: K562, 48 h
[1] = Cytotoxicity against human A375-S2 cells after 48 hrs by MTT assay; details: A375-S2, 48 h
HCT-116 = experiment: Cytotoxicity against human HCT116 cells after 48 hrs by MTT assay; details: HCT-116, 48 h
MCF7 = experiment: Cytotoxicity against human MCF7 cells after 48 hrs by MTT assay; details: MCF7, 48 h
HeLa = experiment: Cytotoxicity against human HeLa cells after 48 hrs by MTT assay
U-937 = experiment: Cytotoxicity against human U937 cells after 48 hrs by MTT assay; details: U-937, 48 h
HL-60 = experiment: Cytotoxicity against human HL60 cells after 48 hrs by MTT assay; details: HL-60, 48 h
A549 = experiment: Cytotoxicity against human A549 cells after 48 hrs by MTT assay; details: A549, 48 h

## C=C(C)[C@]12C[C@@H](C)[C@@]34O[C@@]5(CCCCCCC[C@@H](C)[C@H]6[C@H](C)C(=O)[C@@](O)([C@H](O)[C@@]7(CO)O[C@H]7[C@H]3[C@H]1O5)[C@@H]64)O2 [WIKSTROELIDE E]
HepG2
  IC50: 11.4 µM
HT-1080
  IC50: 15.1 µM
K562
  IC50: 24 µM
[1]
  IC50: 29 µM
HCT-116
  IC50: 29.9 µM
MCF7
  IC50: > 50 µM
HeLa
  IC50: 17.1 µM
U-937
  IC50: 19.5 µM
HL-60
  IC50: 22.1 µM
A549
  IC50: 19.3 µM

## C=C(C)[C@@]12O[C@@]3(/C=C/C=C/CCCCC)O[C@@H]1[C@@H]1[C@@H]4O[C@]4(CO)[C@@H](O)[C@]4(O)C(=O)C(C)=C[C@H]4[C@@]1(O3)[C@H](C)[C@H]2OC(C)=O [YUANHUADINE]
HepG2
  IC50: 26.3 µM
HT-1080
  IC50: < 0.1 µM
K562
  IC50: 22.2 µM
[1]
  IC50: 15.8 µM
HCT-116
  IC50: 32.6 µM
MCF7
  IC50: 4.11 µM
HeLa
  IC50: 17.1 µM
U-937
  IC50: 14.7 µM
HL-60
  IC50: 30.1 µM
A549
  IC50: > 50 µM

## C=C(C)[C@@]12OC3(c4ccccc4)O[C@@H]1[C@@H]1[C@H](O)[C@](O)(CO)[C@@H](O)[C@]4(O)C(=O)C(C)=C[C@H]4[C@@]1(O3)[C@H](C)[C@H]2OC(=O)c1ccccc1 [YUANHUAOATE B]
HepG2
  IC50: 25.1 µM
HT-1080
  IC50: 0.59 µM
K562
  IC50: 21.3 µM
[1]
  IC50: 23.3 µM
HCT-116
  IC50: 26.5 µM
MCF7
  IC50: 0.37 µM
HeLa
  IC50: 21 µM
U-937
  IC50: 14.4 µM
HL-60
  IC50: 27 µM
A549
  IC50: 15.9 µM

## C=C(C)[C@@]1(O)[C@H](OC(=O)/C=C/C=C/CCCCC)[C@@H]2[C@@H]3O[C@]3(CO)[C@@H](O)[C@]3(O)C(=O)C(C)=C[C@H]3[C@@]2(O)[C@H](C)[C@H]1OC(=O)c1ccccc1 [YUANHUAOATE E]
HepG2
  IC50: 11.1 µM
HT-1080
  IC50: 18.4 µM
K562
  IC50: 29 µM
[1]
  IC50: 26.5 µM
HCT-116
  IC50: 16.4 µM
MCF7
  IC50: > 50 µM
HeLa
  IC50: 16.7 µM
U-937
  IC50: 11.6 µM
HL-60
  IC50: 18.5 µM
A549
  IC50: 13.3 µM
